Reference: patent publication EP2340020B1, “MANGANESE AND COBALT COMPLEXES, THEIR PREPARATION AND USE” (GP Investimenti S.r.l., priority 2008, dated 2010)

Assays:
[1] = tested on: rat aorta smooth muscle cells (RASM); experiment: Protection from oxidative stress: MDA levels, O2^- generated by xanthine oxidase/xanthine; format: cell-based; settings: xanthine oxidase/xanthine system; comparable with, or even greater than SOD
Method: (§1) The primary targets of the cytotoxic action of ROS are the membrane lipids, which are peroxidised with the formation of malondialdehyde (MDA). This can be measured spectrophotometrically using the chromogen that is generated from the reaction of MDA with thiobarbituric acid. This measurement is consequently a reliable indicator of ROS-induced cell damage.
(§2) Cultures of rat aorta smooth muscle cells (RASM) were prepared in a medium in which O2^- was generated both by means of the xanthine oxidase/xanthine enzymatic system and by RAW 264.7 macrophages stimulation with fMLP (see the two diagrams shown below, respectively).

xanthine oxidase enzyme = experiment: Uric acid levels in the xanthine/xanthine oxidase system (check for enzyme inhibition); format: biochemical
Sequence of xanthine oxidase enzyme (P47989 whole entry, species assumed): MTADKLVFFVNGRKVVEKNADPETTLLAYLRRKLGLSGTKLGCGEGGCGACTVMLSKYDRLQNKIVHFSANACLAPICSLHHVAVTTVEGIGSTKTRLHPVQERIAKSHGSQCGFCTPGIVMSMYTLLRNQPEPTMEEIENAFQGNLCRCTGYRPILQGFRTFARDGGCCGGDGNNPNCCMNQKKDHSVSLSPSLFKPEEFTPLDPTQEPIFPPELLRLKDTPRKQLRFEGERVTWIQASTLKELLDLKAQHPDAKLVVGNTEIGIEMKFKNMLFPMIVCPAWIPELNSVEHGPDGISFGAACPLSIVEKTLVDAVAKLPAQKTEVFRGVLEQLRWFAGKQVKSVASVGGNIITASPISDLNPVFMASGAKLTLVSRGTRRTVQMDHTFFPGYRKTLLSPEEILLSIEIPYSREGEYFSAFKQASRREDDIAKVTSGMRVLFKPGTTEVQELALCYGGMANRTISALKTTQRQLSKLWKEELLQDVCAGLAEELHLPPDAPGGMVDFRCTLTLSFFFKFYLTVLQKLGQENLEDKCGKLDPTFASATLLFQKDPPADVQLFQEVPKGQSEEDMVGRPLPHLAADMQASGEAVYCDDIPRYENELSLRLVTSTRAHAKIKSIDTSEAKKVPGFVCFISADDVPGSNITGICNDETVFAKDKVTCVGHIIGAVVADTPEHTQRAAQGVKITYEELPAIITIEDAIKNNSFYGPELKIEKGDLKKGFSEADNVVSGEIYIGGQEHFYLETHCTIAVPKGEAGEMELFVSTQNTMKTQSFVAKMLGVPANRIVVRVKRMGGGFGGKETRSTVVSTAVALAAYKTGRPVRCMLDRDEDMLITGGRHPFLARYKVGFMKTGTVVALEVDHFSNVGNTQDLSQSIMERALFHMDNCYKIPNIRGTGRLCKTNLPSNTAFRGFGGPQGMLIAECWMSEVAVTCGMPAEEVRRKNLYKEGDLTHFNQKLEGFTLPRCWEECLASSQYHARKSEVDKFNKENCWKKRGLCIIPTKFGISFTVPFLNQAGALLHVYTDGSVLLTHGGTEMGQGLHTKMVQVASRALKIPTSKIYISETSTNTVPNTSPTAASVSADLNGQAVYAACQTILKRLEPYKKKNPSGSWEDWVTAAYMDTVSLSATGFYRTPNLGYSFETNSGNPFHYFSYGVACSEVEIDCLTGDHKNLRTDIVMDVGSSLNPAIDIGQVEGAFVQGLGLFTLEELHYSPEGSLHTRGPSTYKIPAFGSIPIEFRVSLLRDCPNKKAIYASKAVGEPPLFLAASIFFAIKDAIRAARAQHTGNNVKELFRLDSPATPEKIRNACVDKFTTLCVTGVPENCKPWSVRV
From the text: (§3) In vitro, the xanthine oxidase enzyme metabolises the xanthine substrate and generates uric acid and O2 as products of the reaction, which can be measured spectrophotometrically by oxidation of the NBT chromogen.

RAW 264.7 macrophages = experiment: Toxicity: viability of macrophage cultures; format: cell-based
Method: The viability of the cultures of RAW 264.7 macrophages was measured at various intervals (24, 48, 72 h) after adding increasing concentrations of the compound of Example 2 (10^-7 M- 10^-4 M).

[2] = tested on: rat aorta smooth muscle cells (RASM); experiment: Protection from oxidative stress: MDA levels, O2^- generated by fMLP-stimulated RAW 264.7 macrophages; format: cell-based; settings: RAW 264.7 macrophages stimulated with fMLP; comparable with, or even greater than SOD
Method: as §1, §2

[3] = tested on: fMLP-stimulated RAW 264.7 macrophages; experiment: O2^- scavenging in cultures of fMLP-stimulated macrophages, Fe(II)cytC oxidation; format: cell-based
From the text: The chemotactic peptide fMLP triggers a specific inflammatory activation of the macrophages, which produce high levels of O2^-, that are measurable spectrophotometrically by means of the oxidation of the Fe(II)cytC chromogen.

O2^- = O2^- scavenging in a cell-free system (xanthine/xanthine oxidase), NBT oxidation; format: biochemical; settings: compound at 10^-5 M; baseline 294±12 sec.; p<0.01
From the text: as §3

levels of uric acid (xanthine oxidase enzyme) | IC50 ([3]; reduction of O2^- generated by fMLP-activated macrophages, read-out: 50% inhibiting concentration (IC50%)) [nM] | Substance | levels of MDA in the RASM cells [1] | cytotoxicity (viability of the cultures) (RAW 264.7 macrophages; 10^-7 M-10^-4 M, 24, 48, 72 h, effect only after 72 hours and at 10^-5-10^-4 M) | cell toxicity at active concentrations (RAW 264.7 macrophages; concentrations of the order of 0.1 milligrams/litre) | levels of MDA in the RASM cells [2] | levels of oxidised Fe(II)cytC ([3]; 10^-9-10^-6 M) | activity when pre-incubated and then removed from the cell cultures before adding the activating stimulus ([3]; pre-incubation, removal before fMLP) | time taken to oxidise 50% of the NBT (O2^-) [s] | effectiveness in reducing O2^- levels generated by fMLP-activated macrophages ([3]; Figure 2)
does not reduce the levels of uric acid | 60 | Mn(4,10-dimethyl-1,4,7,10-tetraazacyclododecane-1,7-diacetate) 2H2O) [Example 2] | significantly reduced | mildly cytotoxic only after incubation times of 72 hours and at the greatest concentrations | no cell toxicity | significantly reduced | dose-dependent, significant reduction | remains active | 390 ± 16 | 
 |  | MnSO4 [reference compound] |  |  |  |  |  |  |  | entirely ineffective
